{"source": "paper PMC11676189", "about": "“Improving the Anti-Tumor Effect of Indoleamine 2,3-Dioxygenase Inhibitor CY1-4 by CY1-4 Nano-Skeleton Drug Delivery System” (Journal of Functional Biomaterials, 2024)", "key": {"[1]": {"tested_on": "unresectable metastatic melanoma", "conditions": "combined with Keytruda vs Keytruda alone; phase III, 2018; cited from earlier work"}, "[2]": {"design": "method as in PMID 28053021", "conditions": "cited from earlier work"}, "[3]": {"experiment": "In vitro dissolution of CY1-4 in artificial gastric fluid (pH 1.2) and artificial intestinal fluid (pH 6.8)", "assay_type": "physicochemical", "method": "MSNM@CY1-4 (equivalent to 3 mg of CY1-4) was dispersed in 600 mL artificial gastric fluid (pH 1.2 containing 0.1% (v/v) Tween-80) or 600 mL artificial intestinal fluid (pH 6.8 containing 0.1% (v/v) Tween-80) at 37 °C and 100 rpm. Samples were taken at 0, 2, 5, 12, 20, 40, and 60 min. Each sample was filtered through a 0.22 μm filter membrane and determined by HPLC."}, "[4]": {"experiment": "Solubility of CY1-4 (excess sample shaken in a 37 °C water bath for 48 h, HPLC)", "assay_type": "physicochemical", "conditions": "thermodynamic from solid", "method": "The excess MSNM@CY1-4 was placed in deionized water and was shaken in a 37 °C water bath for 48 h. The supernatant was filtered after centrifugation at 10,000 rpm, and the filtrate was collected. The CY1-4 was measured using HPLC to calculate the solubility of CY1-4."}, "[5]": {"tested_on": "recurrent malignant glioma", "design": "method as in PMID 32436060", "conditions": "up to 500 mg BID; patients with recurrent malignant glioma; cited from earlier work"}}, "data": [{"smiles": "NS(=O)(=O)NCCNc1nonc1C(=NO)Nc1ccc(F)c(Br)c1", "note": "[Epacadostat]", "values": [{"measurement": "Progression-free survival", "setting": "[1]", "value": "failed to significantly improve the progression-free survival"}, {"measurement": "Tolerability", "setting": "[2]", "value": "well tolerated"}, {"measurement": "Inhibition of IDO1 activity", "setting": "[2]; dose of ≥100 mg BID", "value": "could effectively inhibit the activity of IDO1"}]}, {"smiles": "O=C1c2cc([N+](=O)[O-])ccc2-n2c1nc1ncccc1c2=O", "note": "[CY1-4, 9-nitropyridine [2′,3′:4,5] pyrimido [1,2-α] indole-5,11-dione]", "values": [{"measurement": "CY1-4 dissolved", "setting": "[3]; artificial gastric fluid pH 1.2, 5 min", "value": "about 6%"}, {"measurement": "CY1-4 dissolved after the 5 min maximum (decreased to)", "setting": "[3]; artificial gastric fluid pH 1.2, after 5 min", "value": "about 1%"}, {"measurement": "CY1-4 dissolved", "setting": "[3]; artificial intestinal fluid pH 6.8, 5 min", "value": "about 4%"}, {"measurement": "CY1-4 dissolved after the 5 min maximum (decreased to)", "setting": "[3]; artificial intestinal fluid pH 6.8, after 5 min", "value": "about 1%"}, {"measurement": "solubility at 48 h", "setting": "[4]; deionized water, water", "value": "< 100", "unit": "µg/mL"}, {"measurement": "solubility at 48 h", "setting": "[4]; deionized water, water, 48 h", "value": "1.16 ± 0.08", "unit": "µg/mL"}, {"measurement": "solubility at 48 h", "setting": "[4]; pH 1.2 medium, pH 1.2, simulated gastric fluid, pH = 1.2", "value": "1.36 ± 0.04", "unit": "µg/mL"}, {"measurement": "solubility at 48 h", "setting": "[4]; pH 6.8 medium, pH 6.8, aqueous buffer, pH = 6.8", "value": "1.19 ± 0.09", "unit": "µg/mL"}]}, {"smiles": "O=C1CC(c2c[nH]c3ccc(F)cc23)C(=O)N1", "note": "(stereo not drawn) [PF-06840003]", "values": [{"measurement": "Tolerability", "setting": "[5]", "value": "generally well tolerated"}]}]}
